This is an account of results in patent publication US20170008841A1, “CRYSTAL FORMS OF ASTAXANTHIN” (DSM IP ASSETS B.V., priority 2008, published 2017).

Holding throughout (format): physicochemical
Series [1] in a line: Ideal solubility calculated of forms I and II in DCM from melting points and heat of fusion (DSC data). From the text:
The ideal solubility can be estimated by using the equation with measured melting points and heat of fusion form DCS data.

Series [2] is described as follows: Stability of forms I and II in solid form / solid formulations (UV retention). On the procedure:
Two solid formulations of the crystal forms I and II were prepared according to methods mentioned above. The formulations have been analyzed by Raman spectroscopy and—with regard to stability—by UV retention, a commonly used method for stability measurements.
The samples used in this experiment are: • Sample A: crystal form I prepared with methylene chloride • Sample B: crystal form II prepared with chloroform • For both formulations a matrix-composition consisting of a H2O-phase (Ca-Lignosulfonate & Yellow dextrin) and a Oil-phase (CH2Cl2) have been used. • Sample C: As a control commercial product Carophyll Pink 10%-CWS from DSM Nutritional Products Ltd was used. • In this case the following matrix-composition was used: H2O-phase: Ca-Lignosulfonate & Yellow dextrin; Oil-phase: CH2Cl2, & d,l-a-tocopherol, bees wax.)

Series [3] in a line: Solubility measurements of astaxanthin form I and II in different solvents. As to the method: The solubilities of astaxanthin form I and II in different solvents were compared. Due to the very low solubility in some solvents (Isopropanol and corn oil), experiments in these two solvents were measured by using an UV-VIS meter. The saturated solutions were prepared at different temperature in a double jacked vessel and 1 ml of the solution was taken out and measured by the UV-VIS meter. To calculate the real concentration in these solvents, the calibration was made firstly by building up the correlation between absorbance unit and solution concentration.

The nature of series [4]: Solvent-mediated transformation, slurry conversion experiments (XRPD of resulting crystals). As to the method: Solvent-mediated polymorphic transformation is an efficient technique to study the phase stability of different crystal forms in various solvents. […] As transformation rates in different solvents vary from minutes to years, an appropriate solvent should be chosen to either facilitate or retard the transformation.
Currently, the choice of a solvent is still done by trial and error, which is time consuming. In accordance with the present invention, the stability test was carried out by the slurry conversion experiments in six different solvents. Form II (and in one case form I) is suspended as the initial form and the resulting crystals were analyzed by XRPD.

Values after ≈ are worked out from the molar mass of the structure shown. Read-outs that look alike come from different tables or passages of the source.

With `CC1=C(/C=C/C(C)=C/C=C/C(C)=C/C=C/C=C(C)/C=C/C=C(C)/C=C/C2=C(C)C(=O)[C@@H](O)CC2(C)C)C(C)(C)C[C@H](O)C1=O` (relative stereo) [form I, all-trans-astaxanthin], the “Conc. (ideal solubility calculated)” value in series [1] was 0.00 g/mL. In addition, the “stable in solid form” value in series [2] is on record as “at least 5 months”; in series [2] (20° C.-40° C.), “at least 90 days”. Further, the Solubility in series [3] was determined as 200.0 mg · 100 ml^−1. In addition, the solubility (usually the concentration that dissolves in the medium under given conditions) in series [3] lay in the range of 10 to 20 mg/mL (≈ 16.8 to 33.5 mM). Also, in series [4] (Chloroform, 1 day, 20 ° C.), the “Final form after slurry conversion” value is “form II”.

As to `CC1=C(/C=C/C(C)=C/C=C/C(C)=C/C=C/C=C(C)/C=C/C=C(C)/C=C/C2=C(C)C(=O)[C@@H](O)CC2(C)C)C(C)(C)C[C@H](O)C1=O` (relative stereo) [form II, all-trans-astaxanthin], the “Conc. (ideal solubility calculated)” value is given as 0.02 g/mL in series [1] (DCM, Cal. T 12.00 ° C.); 0.04 g/mL in series [1] (DCM, Cal. T 21.80 ° C.); 0.06 g/mL in series [1] (DCM, Cal. T 30.70 ° C.); 0.08 g/mL in series [1] (DCM, Cal. T 39.00 ° C.). Further, the “Ratio (Conc.) form II to form I (ideal solubility calculated)” value in series [1] (DCM, Cal. T 12.00 ° C.) was 3530.79; in series [1] (DCM, Cal. T 21.80 ° C.) it was 1927.23; in series [1] (DCM, Cal. T 30.70 ° C.), 1151.20; in series [1] (DCM, Cal. T 39.00 ° C.), 731.67. Besides, in series [2] (20° C.), the “stable in solid form” value was “at least 90 days”. In addition, the Solubility in series [3] (Acetone, 20° C.) turned out to be 9.0 mg · 100 ml^−1; in series [3] (DCM, 20° C.) it was 1082.0 mg · 100 ml^−1; in series [3] (EtOAc, 20° C.) it was 10.0 mg · 100 ml^−1; in series [3] (EtOH, 20° C.), 11.8 mg · 100 ml^−1; in series [3] (IPA, 20° C.), 6.0 mg · 100 ml^−1. The Conc. is 0.02 g/mL in series [3] (DCM, Exp. T 12.00 ° C.); 0.02 g/mL in series [3] (DCM, Exp. T 21.80 ° C.); 0.04 g/mL in series [3] (DCM, Exp. T 30.70 ° C.). Besides, the “Ln X” value was −6.19 in series [3] (DCM, Exp. T 12.00 ° C.); −5.96 in series [3] (DCM, Exp. T 21.80 ° C.); −5.52 in series [3] (DCM, Exp. T 30.70 ° C.). Further, the “Ratio (Conc.) form II to form I” value in series [3] (DCM, Exp. T 12.00 ° C.) is given as 1.68; in series [3] (DCM, Exp. T 21.80 ° C.) it was 1.83; in series [3] (DCM, Exp. T 30.70 ° C.), 1.54. The “solubility in Isopropanol” value in series [3] (Isopropanol, 30° C.) was 3.4 mg·100 ml^−1. Also, the solubility in acetone entry in series [3] (acetone, 20.5° C.) was “approximately 8 mg·100 ml^−1”. Further, the “Final form after slurry conversion” value is on record as “form I” in series [4] (DCM, 1 day, 20 ° C.) and “form I” in series [4] (EtOAc, 4 days, 40 ° C.).
